Measurements: paper PMC4149375, “Potential of 2-Hydroxy-3-Phenylsulfanylmethyl-[1,4]-Naphthoquinones against Leishmania (L.) infantum: Biological Activity and Structure-Activity Relationships” (PLoS ONE, 2014)
Where two headings read alike, the source gives them in different places.

Experiments:
[1] = system: NCTC clone 929 murine conjunctive cells; experiment: Cytotoxicity against mammalian cells, MTT assay; assay type: cell-based; conditions: NCTC clone 929, 48 h at 37°C, highest concentration 200 µM; for CC50: read-out: Cytotoxicity CC50 (C.I.95%)
Experimental: (§1) L. (L.) infantum (MHOM/BR/1972/LD) promastigotes were maintained in M-199 medium supplemented with 10% fetal bovine serum (FBS) and 0.25% hemin at 24°C. L. (L.) infantum was maintained in golden hamsters for up to approximately 60–70 days post-infection. The amastigotes were obtained from the spleens of previously infected hamsters by differential centrifugation. The macrophages were collected from the peritoneal cavity of BALB/c mice by washing with RPMI-1640 (without phenol red and supplemented with 10% FBS). NCTC (clone 929) murine conjunctive cells were maintained in RPMI-1640 (without phenol red and supplemented with 10% FBS) at 37°C in a humidified containing 5% CO2.
(§2) NCTC cells were seeded at 6×10^4 cells/well in 96-well microplates at 37°C in a 5% CO2. The mammalian cells were incubated with tested compounds to the highest concentration of 200 µM for 48 h at 37°C, using miltefosine as standard drug. The viability of the cells was determined by MTT assay at 570 nm. The selectivity index (SI) was determined considering the following equation: CC50 NCTC cells/IC50 amastigotes.
(§3) The obtained data represent the mean and standard deviation of two independent experiments performed in duplicate. The IC50 and CC50 values were calculated using sigmoid dose-response curves performed using GraphPad Prism version 5.0 (GraphPad Software, San Diego, CA, USA), and the 95% confidence intervals (95% CI) were included. The ANOVA test was performed to evaluate the significance (p<0.05) of data.

[2] = system: intracellular L. (L.) infantum amastigotes; experiment: Activity against intracellular amastigotes in infected macrophages, Giemsa counting; assay type: cell-based, Leishmania (L.) infantum; conditions: for IC50 / Amastigotes IC50 (C.I.95%): BALB/c peritoneal macrophages infected with amastigotes, 120 h at 37°C, na = not active; for IC50: read-out: Amastigotes IC50 (C.I.95%)
Experimental: as §1
The activity against intracellular L. (L.) infantum amastigotes was determined in infected macrophages. Macrophages were obtained as previously described and seeded for 24 h at 1×10^5 cells/well in 16-well slide chambers (Nunc). Amastigotes were isolated from the spleens of previously infected hamsters, separated by differential centrifugation and added to the macrophages at a ratio of 1∶10 (macrophage/amastigotes) for 24 h at 37°C. Non-internalized parasites were removed by washing once with medium and the cells were then incubated with the test compounds for 120 h at 37°C in 5% CO2, using miltefosine as standard drug. At the end of the assay, the cells were fixed in methanol, stained with Giemsa and observed under a light microscope to determine the number of intracellular parasites. The number of amastigotes was determined in 400 macrophages from the drug-treated and control wells [15].
as §3

[3] = system: L. (L.) infantum promastigotes; experiment: Antileishmanial activity against promastigotes, MTT assay; assay type: cell-based, Leishmania (L.) infantum; conditions: 48 h at 24°C, highest concentration 200 µM, na = not active, read-out: Promastigotes IC50 (C.I.95%)
Experimental: as §1
Promastigotes were counted in a Neubauer hemocytometer and seeded at 1×10^6 cells per well in 96-well microplates using miltefosine as standard drug. The tested compounds were incubated at the highest concentration of 200 µM for 48 h at 24°C. Parasite viability was determined using the MTT assay. Briefly, 3-[4,5-dimethylthiazol-2-yl]-2,5-diphenyltetrazolium bromide (MTT) was dissolved in phosphate-buffered saline (PBS) at 5 mg/mL, sterilized through 0.22 µm membranes and incubated with cells (20 µL/well) for 4 h at 24°C. The extraction of the mitochondrial formazan was done with 80 µL of 10% SDS for 18 h at 24°C. The optical density was determined in FilterMax F5 (Molecular Devices) at 570 nm. Promastigotes incubated without compounds were used as the viability control (100% viability) and without cells (blank).
as §3

[4] = Cytotoxicity against mammalian cells, MTT assay; assay type: cell-based, murine; conditions: mouse, NCTC clone 929 murine conjunctive cells, NCTC clone 929, 48 h at 37°C, highest concentration 200 µM, read-out: Cytotoxicity CC50 (C.I.95%)
Experimental: as §1, §2, §3

Compound	CC50 [1] [µM]	IC50 [2] [µM]	IC50 [3] [µM]	Amastigotes IC50 (C.I.95%) [2]	Cytotoxicity CC50 (C.I.95%) [1]	CC50 at 48 h [4] [µM]	S.I. selectivity index (CC50 mammalian cells/IC50 amastigotes) ([2]; CC50 NCTC cells/IC50 amastigotes)	IC50 ([2]; Leishmania infantum, Peritoneal macrophage, in Mus musculus) [µM]	IC50 ([3]; Leishmania infantum) [µM]
Cc1ccc(SCC2=C(O)C(=O)c3ccccc3C2=O)cc1 [Compound 1]	89.1	> 200	> 200						
O=C1C(O)=C(CSc2ccccc2)C(=O)c2ccccc21 [Compound 2]	84.7		124	no activity					
COc1ccc(SCC2=C(O)C(=O)c3ccccc3C2=O)cc1 [Compound 3]	92.6		75	no activity					
O=C1C(O)=C(CSc2ccc(Cl)cc2)C(=O)c2ccccc21 [Compound 4]	82.2		85.4	no activity					
O=C1C(O)=C(CSc2ccc(F)cc2)C(=O)c2ccccc21 [Compound 5]	97.9		129	no activity					
CSc1ccc(SCC2=C(O)C(=O)c3ccccc3C2=O)cc1 [Compound 6]	100		188	no activity					
O=C1C(O)=C(CSc2ccc([N+](=O)[O-])cc2)C(=O)c2ccccc21 [Compound 7]	85.5		8.44	no activity					
CCCSCC1=C(O)C(=O)c2ccccc2C1=O [Compound 9]	> 200	> 200	> 200		lack of toxicity				
Cc1ccccc1SCC1=C(O)C(=O)c2ccccc2C1=O [Compound 13]	> 200	> 200	> 200		lack of toxicity				
Cc1cccc(SCC2=C(O)C(=O)c3ccccc3C2=O)c1 [Compound 14]	> 200	> 200	> 200		lack of toxicity				
O=C1C(O)=C(CSc2ccc3ccccc3c2)C(=O)c2ccccc21 [Compound 15]	> 200	> 200	> 200		lack of toxicity				
O=C1C(O)=C(C(Sc2ccc([N+](=O)[O-])cc2)c2ccccc2)C(=O)c2ccccc21 (stereo not drawn) [Compound 19]	69.5		9.06	no activity					
Cc1cccc(SC(C2=C(O)C(=O)c3ccccc3C2=O)c2ccccc2)c1 (stereo not drawn) [Compound 20]	138	14.7	26.4						
CCCSC(C1=C(O)C(=O)c2ccccc2C1=O)c1ccccc1 (stereo not drawn) [Compound 24]	> 200	> 200	> 200		lack of toxicity				
Cc1ccc(SC(C2=C(O)C(=O)c3ccccc3C2=O)c2ccc([N+](=O)[O-])cc2)cc1 (stereo not drawn) [Compound 25]	42.6		108	no activity					
O=C1C(O)=C(C(Sc2ccccc2)c2ccc([N+](=O)[O-])cc2)C(=O)c2ccccc21 (stereo not drawn) [Compound 28]	94.2		40.1	no activity					
Cc1ccccc1SC(C1=C(O)C(=O)c2ccccc2C1=O)c1ccc([N+](=O)[O-])cc1 (stereo not drawn) [Compound 34]	96		82.9	no activity					
CCCSC(C1=C(O)C(=O)c2ccccc2C1=O)c1ccc([N+](=O)[O-])cc1 (stereo not drawn) [Compound 35]	75.1	> 200	> 200						
O=C1C(O)=C(C(Sc2ccc3ccccc3c2)c2ccc([N+](=O)[O-])cc2)C(=O)c2ccccc21 (stereo not drawn) [Compound 36]	58.2	> 200	> 200						
CCCCCCCCCCCCCCCCOP(=O)([O-])OCC[N+](C)(C)C [miltefosine, reference compound]						122	6.85	17.8	16.9
